Source: ChEMBL document CHEMBL1268970, “Development of novel inhibitors targeting HIF-1α towards anticancer drug discovery” (Bioorg Med Chem Lett, 2010)
pIC50: −log10 of the molar value. Active and inactive are the calls of the source. The rule behind the calls is not given here.

What was measured:
U-251 [1] = assay: Antiproliferative activity against human U251 cells by [3H]thymidine incorporation assay; type: functional, cell-based
PC-3 [2] = assay: Antiproliferative activity against human PC3 cells by [3H]thymidine incorporation assay; type: functional, cell-based
DU-145 = assay: Antiproliferative activity against human DU145 cells by [3H]thymidine incorporation assay; type: functional, cell-based
[3] = target: T1, Hypoxia-inducible factor 1-alpha (Homo sapiens, UniProt Q16665); assay: Inhibition of HIF1alpha in human U251 cells under normoxic condition by luciferase reporter gene assay; type: cell-based, U-251
Target sequence in this assay (Q16665 whole entry): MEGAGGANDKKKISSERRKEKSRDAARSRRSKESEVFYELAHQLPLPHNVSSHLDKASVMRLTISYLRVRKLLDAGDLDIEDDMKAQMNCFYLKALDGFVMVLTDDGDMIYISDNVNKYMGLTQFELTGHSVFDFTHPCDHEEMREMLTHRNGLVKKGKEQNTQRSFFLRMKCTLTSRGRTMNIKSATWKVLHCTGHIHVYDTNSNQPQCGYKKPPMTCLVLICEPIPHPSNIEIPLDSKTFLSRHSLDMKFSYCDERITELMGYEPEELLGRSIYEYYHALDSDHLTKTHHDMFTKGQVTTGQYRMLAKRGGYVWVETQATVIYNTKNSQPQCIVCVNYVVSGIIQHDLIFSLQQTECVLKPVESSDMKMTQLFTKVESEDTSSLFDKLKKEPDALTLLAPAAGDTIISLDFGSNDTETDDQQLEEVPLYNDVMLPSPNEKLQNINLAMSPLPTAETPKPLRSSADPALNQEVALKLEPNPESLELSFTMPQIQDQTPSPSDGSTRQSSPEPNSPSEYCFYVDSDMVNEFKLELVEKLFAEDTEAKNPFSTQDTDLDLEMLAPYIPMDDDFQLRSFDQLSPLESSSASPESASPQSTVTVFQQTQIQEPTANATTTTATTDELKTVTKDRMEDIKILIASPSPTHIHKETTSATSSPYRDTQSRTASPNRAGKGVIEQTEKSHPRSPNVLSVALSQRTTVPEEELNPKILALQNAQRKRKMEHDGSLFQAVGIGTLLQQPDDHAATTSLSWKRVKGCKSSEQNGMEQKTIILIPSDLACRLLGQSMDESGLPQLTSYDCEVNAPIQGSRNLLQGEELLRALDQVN

[4] = target: T1, Hypoxia-inducible factor 1-alpha; assay: Inhibition of HIF1alpha in human U251 cells under hypoxic condition by luciferase reporter gene assay; type: cell-based, U-251
Target sequence in this assay (Q16665 whole entry): as above

PANC-1 = assay: Antiproliferative activity against human PANC1 cells by [3H]thymidine incorporation assay; type: functional, cell-based
[5] = target: T1, Hypoxia-inducible factor 1-alpha; assay: Inhibition of HIF1-alpha-mediated VEGF mRNA expression in human PC3 cells under hypoxic condition by RT-PCR analysis; type: cell-based; conditions: PC-3
Target sequence in this assay (Q16665 whole entry, looked up): as the sequence (Q16665 whole entry) above

[6] = Antiproliferative activity against human WI38 cells by [3H]thymidine incorporation assay; type: cell-based; conditions: WI-38
Mus musculus = assay: Toxicity in SCID mouse xenografted with human PC3 cells assessed as weight loss at 50 mg/kg, po BID for 19 days measured on day 25; type: organism-based, PC-3; parameters: dose 50 mg/kg, route oral; conditions: in vivo, 456 h
PC-3 [7] = assay: Inhibition of HIF1alpha expression in human PC3 cells by Western blot analysis; type: functional, cell-based
HCT-116 = assay: Antiproliferative activity against human HCT116 cells by [3H]thymidine incorporation assay; type: functional, cell-based
PC-3 [8] = assay: Antitumor activity against human PC3 cells xenografted in SCID mouse assessed as tumor growth inhibition at 50 mg/kg, po BID for 19 days measured on day 20; type: functional, organism-based; parameters: dose 50 mg/kg
U-251 [9] = assay: Inhibition of HIF1alpha expression in human U251 cells by Western blot analysis; type: functional, cell-based
MRC5 = assay: Antiproliferative activity against human MRC5 cells by [3H]thymidine incorporation assay; type: cell-based
OVCAR-3 = assay: Antiproliferative activity against human OVCAR-3 cells by [3H]thymidine incorporation assay; type: functional, cell-based; conditions: OVCAR-3, 3 h
HUVEC = assay: Antiangiogenic activity in HUVEC assessed as inhibition of tube formation; type: functional, cell-based; conditions: Homo sapiens

SMILES | pIC50 [3] | pIC50 [4] | other results
CC[C@@]1(O)C(=O)OCc2c1cc1n(c2=O)Cc2cc3c(CN(C)C)c(O)ccc3nc2-1 [TOPOTECAN] |  |  | pIC50 (U-251 [1]): 6.30; pIC50 (PC-3 [2]): 6.00; pIC50 (DU-145): 5.92
COc1cc(C(F)(F)F)nc(-c2ccc(NC(=O)CCl)cn2)n1 | 4.82 | 5.46 | 
Cc1nc(-c2ccc(NC(=O)CCl)cn2)[nH]c(=O)c1F | 5.22 | 5.70 | 
CCc1c(C)nc(-c2ccc(NC(=O)CCl)cn2)nc1O | 5.26 | 5.82 | 
CCOc1cc(C(F)(F)F)nc(-c2ccc(NC(=O)CCl)cn2)n1 |  | 5.10 | 
C=CCOc1nc(-c2ccc(NC(=O)CCl)cn2)nc(C)c1CC | 4.66 | 5.74 | 
Cc1nc(-c2ccc(NC(=O)CCl)cn2)[nH]c(=O)c1Cl |  | 5.26 | 
Cc1nc(-c2ccc(N)cn2)nc(O)c1C |  | < 4.52 | 
C=CCOc1nc(-c2ccc(N)cn2)nc(C)c1Cl |  | < 4.52 | 
C=CCOc1cc(C(F)(F)F)nc(-c2ccc(N)cn2)n1 |  | < 4.52 | 
O=C(CCl)Nc1ccc(-c2nc(Cl)cc(C(F)(F)F)n2)nc1 | 5.00 | 5.85 | 
COc1cc(C(F)(F)F)nc(-c2ccc(N)cn2)n1 |  | < 4.52 | 
Cc1nc(-c2ccc(N)cn2)nc(O)c1Cc1ccccc1 |  | < 4.52 | 
Cc1nc(-c2ccc(N)cn2)nc(O)c1Cl |  | < 4.52 | 
C=CCOc1cc(C(F)(F)F)nc(-c2ccc(NC(=O)CCl)cn2)n1 | 4.52 | 5.70 | 
CCc1c(C)nc(-c2ccc(N)cn2)nc1O |  | < 4.52 | 
Cc1nc(-c2ccc(N)cn2)nc(O)c1F |  | < 4.52 | 
Nc1ccc(-c2nc(O)cc(CCl)n2)nc1 | 4.66 | 5.22 | 
C=CCOc1nc(-c2ccc(NC(=O)CCl)cn2)nc(C)c1Cl | 5.10 | 5.82 | 
C=CCOc1nc(-c2ccc(N)cn2)nc(C)c1CC |  | < 4.52 | 
O=C(CCl)Nc1ccc(-c2nc(O)cc(CCl)n2)nc1 | 5.26 | 5.82 | 
Nc1ccc(-c2nc(O)cc(C(F)(F)F)n2)nc1 |  | < 4.52 | 
Cc1nc(-c2ccc(NC(=O)CCl)cn2)nc(O)c1C |  | < 4.52 | 
O=C(Nc1ccc(-c2nc(O)cc(C(F)(F)F)n2)nc1)C(F)(F)Cl |  | < 4.52 | 
O=C(CCl)Nc1ccc(-c2nc(O)cc(C(F)(F)F)n2)nc1 | 5.10 | 6.10 | pIC50 (U-251 [1]): 5.82; pIC50 (PANC-1): 5.70; inhibition [5]: Dose-dependent effect; pIC50 (PC-3 [2]): 6.00; pIC50 [6]: 5.19; Activity (Mus musculus): Non-toxic; pIC50 (DU-145): 5.92; inhibition (PC-3 [7]): Dose-dependent effect; pIC50 (HCT-116): 6.10; growth inhibition (GI) (PC-3 [8]): Active; inhibition (U-251 [9]): Dose-dependent effect; pIC50 (MRC5): < 5.00; pIC50 (OVCAR-3): 5.46; inhibition (HUVEC): Dose-dependent effect
Cc1nc(-c2ccc(NC(=O)CCl)cn2)nc(O)c1Cc1ccccc1 | 5.00 | 5.40 | 
CCOc1cc(C(F)(F)F)nc(-c2ccc(N)cn2)n1 |  | < 4.52 | 
